Test results taken from PubChem BioAssay AID2305 (GlaxoSmithKline (GSK), 2010).

Each molecule was assayed on P. falciparum 3D7 growth, pLDH absorbance (assay: P. falciparum 3D7 growth inhibition, dose response, strain 3D7 (AID 2305)).

Q: How did the IC50 turn out when O=C(Nc1cc(C(F)(F)F)ccc1-n1cncn1)C1(c2ccccc2)CC1 was run?
A: 60 nM

Q: Cc1c(CNCCCNc2cc(=O)c3ccccc3[nH]2)sc(C(F)=C(F)F)c1Br was tested. Which IC50 did it give?
A: 840 nM

Q: How did the IC50 turn out when COc1ccc2ccccc2c1CCCCN1CCN(CC(c2ccc(F)cc2)N2CCC(N3CCCC3)CC2)CC1 (stereo not drawn) was run?
A: 620 nM

Q: With CC(C)c1ccc(C2CCN(CCCCNC(=O)c3ccc(NC(=O)c4ccc(C(F)(F)F)cc4)cc3)CC2)c(O)c1 as the molecule, how does the IC50 read?
A: 580 nM

Q: For COc1ccc(OC)c(C=NNc2nc3ccccc3[nH]2)c1, which IC50 is on record?
A: 730 nM

Q: How did the IC50 turn out when Cc1ccc(NC(=O)c2cc(S(=O)(=O)NC(C)(C)C)ccc2C)nc1 was run?
A: 760 nM

Q: For COc1c(CNCCCCCCNCc2c(OC)c(OC)c3ccccc3c2OC)c(OC)c2ccccc2c1OC, which IC50 is on record?
A: 960 nM

Q: How did the IC50 turn out when CCCCCCN1CCCN(Cc2ccc(C(=O)Nc3ccc(C)c(F)c3)cc2)CC1 was run?
A: 330 nM

Q: With Cc1ccc(NC(=O)Nc2ccccc2F)cc1-c1ccc(C(=O)Nc2ccncc2)cc1 as the molecule, how does the IC50 read?
A: 560 nM

Q: Which IC50 does the source give for Fc1ccc2nc(-c3ccc(-c4ccc(CNCC5CCCO5)cc4)cc3)[nH]c2c1 (stereo not drawn) here?
A: 440 nM

Q: With COc1cc2c(cc1OC)-c1cc(=Nc3c(C)cc(C)cc3C)n(C)c(=O)n1CC2 as the molecule, how does the IC50 read?
A: 1110 nM

Q: For C[C@H]1CN(Cc2cccc(-c3cc(CNC(=O)c4cccc(CN5CCN(CCOc6ccccc6)CC5)c4)ccc3F)c2)CCN1, which IC50 is on record?
A: 1110 nM

Q: CS(=O)(=O)Nc1cccc(-c2cnc3[nH]cc(-c4ccc(CCC(=O)O)cc4)c3c2)c1 was tested. Which IC50 did it give?
A: 1060 nM

Q: With CN(C)CCCNCc1ccc(-c2ccc(F)c(Cl)c2)o1 as the molecule, how does the IC50 read?
A: 800 nM

Q: For Oc1ccc(-c2cc(COc3ccccc3C(F)(F)F)c(C3=CCNCC3)cc2COc2ccccc2C(F)(F)F)cc1, which IC50 is on record?
A: 780 nM

Q: Which IC50 does the source give for Cc1ccc(Nc2nc(C)cc(N3CCN(c4ccccc4)CC3)n2)cc1 here?
A: 1530 nM

Q: Cc1cc(NN=Cc2ccc(Cl)cc2)c2cccc(C)c2n1 was tested. Which IC50 did it give?
A: 720 nM

Q: With O=C(NC1CC1)c1ccc(N2CCC(c3ccccc3)CC2)nc1 as the molecule, how does the IC50 read?
A: 1110 nM

Q: CC[C@H]1CN2CC[C@@H]1C[C@H]2[C@H](O)c1cc(N2CCC(O)CC2)nc2ccc(OC)cc12 was tested. Which IC50 did it give?
A: 170 nM

Q: For N#Cc1ccc(-c2ccc(C(=O)NCCCCN3CCC(c4ccncc4)CC3)cc2)cc1, which IC50 is on record?
A: 810 nM

Q: Cc1cc(F)ccc1Nc1nc(N(C)c2ccccc2)c2cc(OCCN(C)C)ccc2n1 was tested. Which IC50 did it give?
A: 790 nM

Q: How did the IC50 turn out when O=C(c1ccc(-c2ccc(Cl)cc2)o1)N1CCc2cc3nccc(N4CCN5CCC[C@H]5C4)c3cc21 was run?
A: 170 nM

Q: With Cn1nccc1C(=O)NCCNCc1ccc(-c2ccc(-c3nc4ccccc4[nH]3)s2)cc1 as the molecule, how does the IC50 read?
A: 560 nM

Q: With NC(N)=NC(=O)Nc1ccc([N+](=O)[O-])c(Cl)c1 as the molecule, how does the IC50 read?
A: 880 nM

Q: How did the IC50 turn out when Cc1cccc2[nH]c(-c3ccc(-c4cccc(NC(=O)Nc5ccc(Cl)c(Cl)c5)c4)s3)nc12 was run?
A: 590 nM

Q: How did the IC50 turn out when CCNc1cc(C(=O)N[C@@H](Cc2ccccc2)[C@H](O)CNC2CCC(C)(C)CC2)cc(N2CCCCS2(=O)=O)c1 was run?
A: 650 nM

Q: Which IC50 does the source give for COc1ccc(-c2cccc(NC(=O)c3cccc(C#N)c3)c2)cc1CN1CCC(O)CC1 here?
A: 990 nM

Q: With O=C(Nc1cccc(-c2ccc(-c3nc4ccc(C(F)(F)F)cc4[nH]3)cc2)c1)c1ccncc1 as the molecule, how does the IC50 read?
A: 340 nM

Q: How did the IC50 turn out when COc1ccc(CNCc2ccccc2)cc1-c1ccc(OC)c(S(=O)(=O)NCCN2CCCC2)c1 was run?
A: 830 nM

Q: Which IC50 does the source give for C=C(C)C1CC=C(CN2CCC(N3CCc4cc(NC(=O)c5cc(C)on5)ccc43)C2)CC1 (stereo not drawn) here?
A: 710 nM

Q: With Cc1cc2[nH]c(-c3ccc(C(=O)NCCCN4CCN(c5cccc(Cl)c5)CC4)s3)nc2cc1Cl as the molecule, how does the IC50 read?
A: 650 nM

Q: Which IC50 does the source give for CCC(C)NC(=O)CN1CN(c2ccccc2)C2(CCN(C(=O)c3ccc(C(C)(C)C)cc3)CC2)C1=O (stereo not drawn) here?
A: 130 nM

Q: For O=C1[C@H]2C(c3ccc(Cl)c(Cl)c3)N3CC(OCc4ccccc4)CC3(C(=O)O)[C@H]2C(=O)N1c1ccc(Br)cc1 (stereo partly drawn), which IC50 is on record?
A: 340 nM

Q: How did the IC50 turn out when CCCCCN1CCN(Cc2cccc(NC(=O)c3ccc(Cl)c(Cl)c3)c2)CC1 was run?
A: 860 nM

Q: C[C@H](CNc1ccnc(Nc2ccc3[nH]c(=O)[nH]c3c2)n1)c1ccccc1 was tested. Which IC50 did it give?
A: 1310 nM

Q: Which IC50 does the source give for O=C(N[C@@H](CC1CCCCC1)C(=O)NC1CCCc2ccccc21)c1ccc(O)c(-c2cccc([N+](=O)[O-])c2)c1 (stereo partly drawn) here?
A: 610 nM

Q: With Cn1cnc(CCNC(=O)c2cccc(-c3cccc(-c4nc5ccc(C(F)(F)F)cc5[nH]4)c3)c2)c1 as the molecule, how does the IC50 read?
A: 700 nM

Q: How did the IC50 turn out when O=C(Nc1ccc(N2CCN(c3ncccc3C(F)(F)F)CC2)nc1)c1cccs1 was run?
A: 1190 nM

Q: For CN(C)CCCN1CCN(C(=O)c2cc3cc(-c4ccccc4)ccc3n2S(=O)(=O)c2ccccc2)CC1, which IC50 is on record?
A: 120 nM

Q: With O=C(/C=C/c1ccc(Cl)c(Cl)c1)NCCCCCN1CCC(NC(=O)Nc2ccc(Cl)cc2Cl)CC1 as the molecule, how does the IC50 read?
A: 640 nM

Q: CCCCNCc1ccc(-c2nc(CN(C(=O)Nc3cc([N+](=O)[O-])ccc3F)C3Cc4ccccc4C3)cs2)cc1 was tested. Which IC50 did it give?
A: 1100 nM

Q: How did the IC50 turn out when Nc1ccc2nc(C=Cc3ccccc3)[nH]c2c1 was run?
A: 750 nM

Q: For Cc1cccc2c3c([nH]c12)C1(CCN(Cc2ccccc2)CC1)NC(C(=O)NCc1ccccc1)C3 (stereo not drawn), which IC50 is on record?
A: 1370 nM

Q: With Cc1[nH]c2cc(F)ccc2c1C1=CCN(CCCCC2(C)C(=O)Nc3ccccc32)CC1 (stereo not drawn) as the molecule, how does the IC50 read?
A: 290 nM

Q: With O=C(/C=C/c1ccc(Cl)c(Cl)c1)NC1CCC(CN2CCC(c3c[nH]c4ccncc34)CC2)CC1 (stereo not drawn) as the molecule, how does the IC50 read?
A: 400 nM

Q: For CC(C)(C)c1cc([N+](=O)[O-])cc(C(=O)Nc2ccccc2C(F)(F)F)c1O, which IC50 is on record?
A: 650 nM

Q: With CC(=O)COc1c(C2CCN(CCCCNC(=O)c3ccc(-c4ccc(C(F)(F)F)cc4)cc3)CC2)ccc2c1CCCC2 as the molecule, how does the IC50 read?
A: 780 nM

Q: How did the IC50 turn out when COc1ccc2cc(C(=O)Nc3ccc4c(c3)CCN(C3CCC3)CC4)ccc2c1 was run?
A: 840 nM
